In patent publication US20230111910A1, “PD-1/PD-L1 INHIBITOR, PREPARATION METHOD THEREFOR, AND USE THEREOF” (SHANGHAI SYNERGY PHARMACEUTICAL SCIENCES CO., LTD., priority 2020, published 2023):
Counter-ions that a name gives are not always drawn. Like-named read-outs stand apart in the source and are kept apart here.

Key:
[1] = Acute toxicity test in mice, single dose, 14 days observation; type: in vivo; details: both sexes, mouse, in vivo; ICR mice, single administration; read-out: median lethal dose (LD50)
Method: (§1) This experiment aims to test the toxic effects of the compounds in mice.
(§2) ICR mice, SPF grade, 6-8 weeks old, half male and half […], purchased from Sippe-Bk Lab Animal Co., Ltd., Shanghai, license number SCXK (Shanghai) 2018-0006, animal certificate number: 20180006010983.
(§3) ICR mice were administered different doses of compounds at a single time, and were continuously observed for 14 days. The animal death, poisoning reaction, body weight change, diet, appearance, behavior, etc. were recorded. At the end point, the animals were dissected, and the organs were taken for histopathological examination.

ICR mice = experiment: as above; type: in vivo; details: within 14 days from administration
Method: as §1, §2, §3

[2] = tested on: mouse colon cancer MC38-hPD-L1; experiment: In vivo efficacy in mice, MC38-hPD-L1 subcutaneous tumor model; details: 50 mg/kg i.g., twice a day, MC38-hPD-L1 in C57BL/6 mice
From the text: Under sterile conditions, mouse colon cancer MC38-hPD-L1 in logarithmic growth phase was digested into single cells and then transplanted into the right back of C57BL/6 mice subcutaneously. Each mouse was inoculated with 1×10^6 cells in a volume of […] (μL). After inoculation, when the tumor grows to 100 cubic millimeters (mm^3), the mice were randomly divided into 9 groups, with 8 mice in each group, for drug efficacy experiments. The positive control was human programmed death receptor ligand (PD-L1) antibody. The negative control group was given the same amount of vehicle.
C57BL/6 mice, SPF grade, 6-8 weeks old, female, purchased from Beijing Vital River Laboratory Animal Technology Co., Ltd., license number SCXK […] 2017-0011, animal certificate number: 20170011003865.
An appropriate amount of compound was weighted, dissolved in 5% dimethyl sulfoxide (DMSO), subjected to vortex and sonication, added with 0.5% sodium carboxymethyl cellulose (CMC-Na), and sonicated, to prepare a solution of 5 mg per milliliter (mg/mL).

[3] = Pharmacokinetic experiment in rats, LC/MS/MS; type: in vivo; details: SD rats; for AUC / half-life / bioavailability / Cmax: male, rat, whole blood; for AUC: read-out: Area under the curve (AUC, ng/mL.h); for half-life: read-out: Half life (T1/2, h) (converted); for bioavailability: read-out: Bioavailability (F%); for Cmax: read-out: Blood concentration (Cmax, ng/mL)
Method: Taking SD rats as an example, the drug concentrations in the plasma of rats at different times after i.g. and i.v. administration of compounds of Examples 1, 5, 6, 8, 12, 13, 15, 18, 19, 22, 25, 27 and 29, respectively, were determined by the liquid chromatography-tandem mass spectrometry (LS/MS/MS) method, and the relevant pharmacokinetic parameters were calculated to evaluate the pharmacokinetic properties of example compounds of the present invention in rats.
Healthy adult SD rats, SPF grade, male, purchased from Sippe-Bk Lab Animal Co., Ltd., Shanghai, license number SCXK (Shanghai) 2018-0006, animal certificate number: 20180006006321.
A certain amount of compound was weighed, dissolved in 5% dimethyl sulfoxide (DMSO), subjected to vortex and sonication, added with 0.5% sodium carboxymethyl cellulose (CMC-Na), and sonicated, to prepare a homogeneous solution.
Before administration and 5 min, 15 min, 0.5 h, 1 h, 2 h, 4 h, 6 h, 8 h and 24 h after administration, orbital blood was collected, 0.2 milliliters (mL) of blood being collected each time, and placed in an anticoagulant tube, mixed well, and stored in a −20° C. refrigerator for later use.
The content of the compound in rat whole blood was determined by liquid chromatography-tandem mass spectrometry (LS/MS/MS).
The pharmacokinetic parameters of the compounds after administration were calculated using the non-compartmental model of WinNonLin5.3 software.

[4] = po, p.o. 10 mg/kg vs i.v. 2 mg/kg

Row | Compound | LD50 at 14 days [1] [mg/kg] | body weight and behavior compared with control group (ICR mice) | Tumor growth inhibition rate [2] [%] | also measured
1 | Cc1c(NC(=O)c2nc(CNCCO)cs2)cccc1-c1cccc(NC(=O)c2ccc(CNCCO)cn2)c1Cl [Example 2] | > 1000 | no abnormal body weight or behavior |  | 
2 | Cc1c(NC(=O)c2nc3c(s2)CN(C)CC3)cccc1-c1cccc(-c2nc3cc(CN4CC[C@@H](C(=O)O)C4)cnc3o2)c1C [Example 4, (R)-1-(((2-(2,2′-dimethyl-3′-(5-methyl-4,5,6,7-tetrahydrothiazolo[5,4-c]pyridine-2-carboxamido))-[1,1′-biphenyl]-3-yl)oxazolo[5,4-b]pyridin-6-yl)methyl)pyrrolidine-3-carboxylic acid] | > 1000 | no abnormal body weight or behavior | 82 | 
3 | Cc1c(NC(=O)c2nc3c(s2)CN(C)CC3)cccc1-c1cncc(-c2nc3cc(CN4CC[C@@H](C(=O)O)C4)cc(Cl)c3o2)c1C [Example 9] | > 1000 | no abnormal body weight or behavior | 78 | 
4 | Cc1c(Nc2nccc3cc(CN4CC[C@@H](O)C4)cnc23)cccc1-c1cncc(-c2nc3cc(CN4CC[C@@H](C(=O)O)C4)cc(Cl)c3o2)c1C [Example 11, (R)-1-(((7-chloro-2-(5-(3-((3-((((R)-3-hydroxypyrrolidin-1-yl)methyl)-1,7-naphthyridin-8-yl)amino)-2-methylphenyl)-4-methylpyridin-3-yl)benzo[d]oxazol-5-yl)methyl)pyrrolidine-3-carboxylic acid trifluoroacetate] | > 1000 | no abnormal body weight or behavior | 85 | 
5 | Cc1c(NC(=O)c2nc3c(n2C)CCN(C)C3)cccc1-c1cncc(-c2nc3cc(CN4CC[C@@H](C(=O)O)C4)cc(Cl)c3o2)c1C [Example 13] | > 1000 | no abnormal body weight or behavior |  | AUC ([3]; iv, i.v., 2 mg/kg): 630 ng·h/mL; half-life ([3]; iv, i.v., 2 mg/kg): 1.43 h; bioavailability [3, 4]: 54%; AUC ([3]; po, p.o. (i.g.), 10 mg/kg): 1700 ng·h/mL; Cmax ([3]; po, p.o. (i.g.), 10 mg/kg): 431 ng/mL
6 | Cc1c(NC(=O)c2nc3c(n2C)CCN(CC(C)O)C3)cccc1-c1nccc(NC(=O)c2nc3c(n2C)CCN(C)C3)c1Cl (stereo not shown) [Example 15] |  |  | 86 | Area under the curve (AUC, ng/mL.h) ([3]; i.v., 2 mg/kg): 599.36 ng·h/mL; Half life (T1/2, h) ([3]; i.v., 2 mg/kg): 1.76 h; Bioavailability (F%) ([3]; p.o. 10 mg/kg vs i.v. 2 mg/kg): 58%; Area under the curve (AUC, ng/mL.h) ([3]; p.o. (i.g.), 10 mg/kg): 1618.28 ng·h/mL; Blood concentration (Cmax, ng/mL) ([3]; p.o. (i.g.), 10 mg/kg): 377.6 ng/mL
7 | Cc1c(NC(=O)c2nc3c(n2C)CCNC3)cccc1-c1cncc(-c2nc3cc(CN4CC[C@@H](C(=O)O)C4)cc(Cl)c3o2)c1C [Example 19, (R)-1-(((7-chloro-2-(4-methyl-5-(2-methyl-3-(1-methyl-4,5,6,7-tetrahydro-1H-imidazole)[4,5-c]pyridine-2-carboxamido)phenyl)pyridin-3-yl)benzo[d]oxazol-5-yl)methyl)pyrrolidine-3-carboxylic acid] | > 1000 | no abnormal body weight or behavior |  | AUC ([3]; iv, i.v., 2 mg/kg): 560 ng·h/mL; half-life ([3]; iv, i.v., 2 mg/kg): 2.21 h; bioavailability [3, 4]: 65%; AUC ([3]; po, p.o. (i.g.), 10 mg/kg): 1820 ng·h/mL; Cmax ([3]; po, p.o. (i.g.), 10 mg/kg): 407 ng/mL
8 | Cc1c(NC(=O)c2nc3c(n2C)CCN(C)C3)cncc1-c1cccc(-c2nc3cc(CN4CC[C@@H](C(=O)O)C4)cc(Cl)c3o2)c1C [Example 21] | > 1000 | no abnormal body weight or behavior |  | 
9 | Cc1c(NC(=O)c2nc3c(n2C)CCN(C[C@H](C)O)C3)cncc1-c1cccc(NC(=O)c2nc3c(n2C)CCN(C2COC2)C3)c1Cl [Example 23, (S)—N-(5-(2-chloro-3-(1-methyl-5-(oxetan-3-yl)-4,5,6,7-tetrahydro-1H-imidazo[4,5-c]pyridine-2-carboxamido)phenyl)-4-methylpyridin-3-yl)-5-(2-hydroxypropyl)-1-methyl-4,5,6,7-tetrahydro-1H-imidazo[4,5-c]pyridine-2-carboxamide] |  |  | 81 | 
10 | Cc1c(NC(=O)c2nc3c(n2C)CCN(C[C@H](C)O)C3)cncc1-c1cccc(NC(=O)c2nc3c(n2C)CCN(C(C)C)C3)c1Cl [Example 24, (S)—N-(2-chloro-3-(5-(5-(2-hydroxypropyl)-1-methyl-4,5,6,7-tetrahydro-1H-imidazo[4,5-c]pyridine-2-carboxamido)-4-methylpyridin-3-yl)phenyl)-5-isopropyl-1-methyl-4,5,6,7-tetrahydro-1H-imidazo[4,5-c]pyridine-2-carboxamide] | > 1000 | no abnormal body weight or behavior |  | 
11 | Cc1c(NC(=O)c2nc3c(n2C)CCN(C[C@H](C)O)C3)cncc1-c1cccc(NC(=O)c2nc3c(n2C)CCN(C[C@H](C)O)C3)c1Cl [Example 26, N-(5-(2-chloro-3-(5-((S)-2-hydroxypropyl)-1-methyl-4,5,6,7-tetrahydro-1H-imidazo[4,5-c]pyridine-2-carboxamido)phenyl)-4-methylpyridin-3-yl)-5-((S)-2-hydroxypropyl)-1-methyl-4,5,6,7-tetrahydro-1H-imidazo[4,5-c]pyridine-2-carboxamide] | > 1000 | no abnormal body weight or behavior |  | 
12 | CCN1CCc2c(nc(C(=O)Nc3cncc(-c4cccc(NC(=O)c5nc6c(n5C)CCN(CC)C6)c4Cl)c3C)n2C)C1 [Example 27, N-(2-chloro-3-(5-(5-ethyl-1-methyl-4,5,6,7-tetrahydro-1H-imidazo[4,5-c]pyridine-2-carboxamido)-4-methylpyridin-3-yl)phenyl)-5-ethyl-1-methyl-4,5,6,7-tetrahydro-1H-imidazo[4,5-c]pyridine-2-carboxamide] |  |  | 80 | AUC ([3]; iv, i.v., 2 mg/kg): 637 ng·h/mL; half-life ([3]; iv, i.v., 2 mg/kg): 2.26 h; bioavailability [3, 4]: 46%; AUC ([3]; po, p.o. (i.g.), 10 mg/kg): 1460 ng·h/mL; Cmax ([3]; po, p.o. (i.g.), 10 mg/kg): 423 ng/mL
13 | Cc1c(NC(=O)c2nc3c(n2C)CCN(CC(C)O)C3)cccc1-c1cccc(-c2nc3cc(CN4CC[C@@H](C(=O)O)C4)ncc3o2)c1C (stereo partly drawn) [Example 29, (R)-1-((2-(3′-(5-(2-hydroxypropyl)-1-methyl-4,5,6,7-tetrahydro-1H-imidazo[4,5-c]pyridine-2-carboxamido)-2,2′-dimethyl-[1,1′-biphenyl]-3-yl)oxazolo[5,4-c]pyridin-6-yl)methyl)pyrrolidine-3-carboxylic acid] |  |  |  | AUC ([3]; iv, i.v., 2 mg/kg): 617 ng·h/mL; half-life ([3]; iv, i.v., 2 mg/kg): 2.14 h; bioavailability [3, 4]: 48%; AUC ([3]; po, p.o. (i.g.), 10 mg/kg): 1480 ng·h/mL; Cmax ([3]; po, p.o. (i.g.), 10 mg/kg): 405 ng/mL
14 | Cc1c(NC(=O)c2nc3c(n2C)CCN(C[C@H](C)O)C3)cncc1-c1cccc(-c2nc3cc(CN4CC[C@@H](C(=O)O)C4)cc(Cl)c3o2)c1C [Example 30, (R)-1-(((7-chloro-2-(3-(5-(5-((S)-2-hydroxypropyl))-1-methyl-4,5,6,7-tetrahydro-1H-imidazo[4,5-c]pyridine-2-carboxamido)-4-methylpyridin-3-yl)-2-methylphenyl)benzo[d]oxazole-5-yl)methyl)pyrrolidine-3-carboxylic acid] | > 1000 | no abnormal body weight or behavior | 79 | 
